# Read-outs that look alike come from different tables or passages of the source.
# What was measured:
# Assay in all cases: In vitro antimicrobial activity, two-fold agar-plate dilution method (MIC)
# Format in all cases: cell-based
# [1] = tested on: Bacillus subtilis ATCC 6633; details: 37° C., 20 hours
# Experimental: (§1) In vitro Antimicrobial activity was determined by the two-fold agar-plate dilution method as described below.
# (§2) One loopful of an overnight culture of each test strain in Tripticase-soy broth (approximately 10^8 viable cells per ml) was streaked on heart infusion agar (HI-agar) containing graded concentrations of antimicrobial agents, and the minimal inhibitory concentration (MIC) was expressed in term of μg/ml after incubation at 37° C. for 20 hours.
# Escherichia coli 31 = details: HI-agar, 37° C., 20 hours
# Experimental: as §1, §2
# [2] = tested on: Staphylococcus aureus 209P JC-1; details: HI-agar, 37° C., 20 hours
# Experimental: as §1, §2
# [3] = ATCC6633, HI-agar, read-out: MIC
MIC ([1]; HI-agar),MIC (Escherichia coli 31),MIC [2],"MIC [1, 3]",MIC (Escherichia coli 31; read-out: MIC),MIC ([2]; read-out: MIC),Structure (SMILES)
0.78 µg/mL,1.56 µg/mL,3.13 µg/mL,,,,"CC(=O)OCC1=C(C(=O)OC(c2ccccc2)c2ccccc2)N2C(=O)C(=O)C2SC1 (stereo not drawn) [Example 2(3), benzhydryl 7-oxocephalosporanate]"
,,,0.78 µg/mL,6.25 µg/mL,6.25 µg/mL,"CON(C(=O)Cc1cccs1)[C@@H]1C(=O)N2C(C(=O)O)=C(COC(C)=O)CS[C@H]12 [Test compound 1, Sodium 7-[N-methoxy-2-(2-thienyl)acetamido]cephalosporanate]"
,,,3.13 µg/mL,6.25 µg/mL,6.25 µg/mL,"Cn1nnnc1SCC1=C(C(=O)O)N2C(=O)[C@@H](N(O)C(=O)Cc3cccs3)[C@H]2SC1 [Test compound 3, 7-[N-Hydroxy-2-(2-thienyl)acetamido]-3-(1-methyl-1H-tetrazol-5-ylthiomethyl)-3-cephem-4-carboxylic acid]"

# Reference: US4369312A, “Method of producing oxo-containing azetidinone compounds” (Fujisawa Pharmaceutical Co., Ltd., priority 1980, dated 1983)
